Measurements reported in patent US6375926B1, “Labelled elastase inhibitors” (Amersham International PLC, priority 1996, dated 2002).

Experiments:
[1] = tested on: isolated human white cells (granulocytes; monocytes + lymphocytes); test: In vitro cell uptake in isolated human white cells; type: cell-based; details: for selectivity for granulocytes over a mixture of monocytes/lymphocytes: approximately equivalent numbers of monocytes/lymphocytes and granulocytes present; for % uptake in Gran. (granulocytes), WHITE CELLS / % uptake in Mon. (monocytes + lymphocytes), WHITE CELLS: isolated human white cells, 30 minutes at 37° C., radiolabelled compound
Method: Fresh blood (30-120 ml) was anticoagulated with 1.5% ACD solution and sedimented by addition of 2 ml Hespan per 10 ml blood for 90 minutes at room temperature. The leucocyte rich platelet rich plasma supernatant was removed and centrifuged at 150 g for 5 minutes, yielding a leucocyte rich pellet and platelet rich plasma (PRP). The PRP was centrifuged at 4000 g to pellet the platelets leaving a cell free plasma (CFP). The leucocyte pellet was resuspended in a 50:50 mixture of HBSS and CFP and incubated with the radioactive compound for 30 minutes at 37° C. Free radioactive material was then removed from the cells by addition of an excess of HBSS:CFP and centrifugation of the leucocytes at 150 g for 7 minutes. The supernatant and cell pellet were taken for radioactive counting for calculation of percentage cell uptake. The distribution of radioactivity within the cell pellet was assessed by separation of the cell types using Percoll density gradient centrifugation (38%, 55% and 73% Percoll in HBSS step gradients). The residual plasma and free activity was recovered from the top of the gradient, the mononuclear cells (lymphocytes and monocytes) from the interface between 38% and 55%, and the granulocytes were recovered from the interface between 55% and 73% Percoll.

[2] = tested on: mixed human red/white cells (granulocytes, monocytes + lymphocytes, erythrocytes); test: In vitro cell uptake in mixed human red/white cells; type: cell-based; details: radiolabelled compound
Method: The radioactive compound was also incubated with an isolated leucocyte preparation to which an erythrocyte fraction had been added back. The packed erythrocytes obtained after blood sedimentation were washed twice with HBSS and then resuspended in their original blood volume with HBSS. Leucocytes obtained from 30 ml blood were resuspended in 0.5 ml erythrocyte suspension and 0.5 ml CFP. The cell suspension was then incubated with compound as above. Analysis of the distribution of activity in the cell pellet in the presence of red blood cells was carried out using Ficoll-Hypaque discontinuous density gradients (densities 1.04, 1.077 and 1.119 g/ml Histopaque steps).

[3] = target: T1, HLE (human leucocyte elastase) (Homo sapiens, UniProt P08246); test: Measurement of HLE inhibition potency (kinact/Ki); type: biochemical; details: for Potency (1/(M·s)), kinact/Ki: measured for non-radioactive iodine-labelled compounds and unlabelled chelate conjugates
T1 sequence (P08246 30-267): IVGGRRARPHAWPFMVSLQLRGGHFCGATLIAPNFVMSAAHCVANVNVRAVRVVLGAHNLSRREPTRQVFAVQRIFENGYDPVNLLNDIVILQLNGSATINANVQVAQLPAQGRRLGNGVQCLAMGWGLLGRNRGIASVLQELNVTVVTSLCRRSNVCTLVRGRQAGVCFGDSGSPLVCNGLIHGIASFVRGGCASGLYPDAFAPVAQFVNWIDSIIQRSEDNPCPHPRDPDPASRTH
Method: Inhibitor potency against HLE is described by the parameter kinact/Ki as previously reported [Knight et al., Biochem., 8160-8170, (1992)]. Lyophilised enzyme was reconstituted with TrisHCl buffer, 100 mM, 0.5M NaCl at 0.05 units/ml (approximately nanomolar concentration) in a final reaction volume of 1 ml to which was added methoxysucc-ala-ala-pro-val-pNA substrate (1 mM) and the elastase inhibitor dissolved in DMSO. The reaction was monitored by detecting the change of absorbance at 410 nm (hydrolysis of the substrate releasing p-nitroaniline) over a timescale of 25 minutes. Values of kinact/Ki were estimated according to the Knight et al method.

[4] = tested on: human whole blood (granulocytes, monocytes + lymphocytes, erythrocytes); test: In vitro cell uptake in human whole blood; type: cell-based; details: 37° C. for 1 hour, radiolabelled compound
Method: The radioactive compound was added to 1 ml whole blood anticoagulated with ACD and incubated at 37° C. for 1 hour. The blood was diluted with HBSS and the cellular component separated by centrifugation. Distribution of activity within the cellular pellet was assessed by separation of cell fractions on Ficoll-Hypaque gradients as above.

[5] = tested on: E. coli infected rats (experimental abscess); test: In vivo biodistribution of ex vivo labelled human leucocytes in E. coli infected rats; set-up: species or system male Wistar rats; details: ex vivo labelled human leucocytes injected i.v.
Method: (§1) The model: into the right gracilis (thigh) muscle of male Wistar rats (250-325 g) were injected 1 ml/kg of an E. coli suspension containing >> 5×10^8/ml organisms.
(§2) Validation: the model was validated for use in the development of diagnostic imaging agents of infection/inflammation by the intravenous injection of ^99mTc-HMPAO ex-vivo labelled human wbc or ^67Ga-citrate when the abscesses were 24 hours old. Animals were dissected between 4 and 24 hours after injection. ^99mTc-labelled red blood cells were used as a negative control.
Screening of Ex vivo labelled human leucocytes in E. coli infected rats: A mixed population of human leucocytes was incubated with elastase inhibitor for 30 minutes at 37° C. The cells were then spun down and resuspended in a known volume of rat plasma for intravenous injection into rats bearing a 24 hour old abscess. Animals were dissected at 4 and 24 hours post injection.

[6] = tested on: E. coli infected rats (experimental abscess); test: In vivo biodistribution in rats bearing experimental abscesses, direct intravenous injection; set-up: species or system male Wistar rats; details: directly injected i.v.; for Relative conc. In infected area: % injected dose in a % body weight; for Infected/normal: ratio of % id/g infected area to contralateral thigh; for Infected/blood: ratio of %/g infected area to blood
Method: as §1, §2
The animals were sacrificed at either 4 or 24 hours post injection and relevant tissues dissected.

[7] = In vivo stability of iodinated HLE inhibitors (thyroid uptake); set-up: species or system male Wistar rats; details: i.v. injection
Method: The in vivo stability of radioiodinated HLE inhibitors was monitored by determination of the percentage uptake in the thyroid as a function of time after administration. Thus radioiodinated compounds and ^123I free iodide were injected into male Wistar rats. The percentage of injected dose distributing to the thyroid was calculated by dissection at 4 and 24 hours post injection and counting.

Row | SMILES | selectivity for granulocytes over a mixture of monocytes/lymphocytes [1] | % uptake in Gran. (granulocytes), WHITE CELLS [1] [%] | % uptake in Mon. (monocytes + lymphocytes), WHITE CELLS [1] [%] | % uptake in Eryth. (erythrocytes), WHITE AND RED CELLS [2] [%] | % uptake in Gran. (granulocytes), WHITE AND RED CELLS [2] [%] | % uptake in Mon. (monocytes + lymphocytes), WHITE AND RED CELLS [2] [%] | Potency (1/(M·s)), kinact/Ki [3] [M⁻¹ s⁻¹] | % uptake in Eryth. (erythrocytes), WHOLE BLOOD [4] [%] | % uptake in Gran. (granulocytes), WHOLE BLOOD [4] [%] | % uptake in Mon. (monocytes + lymphocytes), WHOLE BLOOD [4] [%] | other results
1 | CCC1(CC)C(=O)N(C(=O)NCCCCCC(=O)NCC(C)(CNC(C)(C)C(C)=NO)CNC(C)(C)C(C)=NO)C1Oc1ccc(C(=O)N2CCN(C)CC2)cc1 (racemic) [Compound 48, Conjugate Between Chelate, 3,3,6,9,9-pentamethyl-6-aminomethyl-4,8-diazaundecane-2,10-dionedioxime and 4-[4-[[(4-Methyl)piperazin-1-yl]carbonyl]phenoxy]-1-[(5-carboxy)pentylaminocarbonyl]-3,3-diethyl-2-azetidinone] | some degree of selectivity for granulocytes | 64.5 | 7.3 | 38.7 | 16.2 | 7.2 | 5500 | 9.17 | 10.6 | 22.7 | 
2 | CCC1(CC)C(=O)N(C(=O)NCc2ccccc2)C1Oc1ccc(C(=O)NCC(C)(CNC(C)(C)C(C)=NO)CNC(C)(C)C(C)=NO)cc1 (racemic) [Compound 49, Conjugate Between Chelate, 3,3,6,9,9-pentamethyl-6-aminomethyl-4,8-diazaundecane-2,10-dionedioxime and 4-[(4-carboxy)phenoxy]-1-[benzylaminocarbonyl]-3,3-diethyl-2-azetidinone] | some degree of selectivity for granulocytes | 47.3 | 10.1 | 18.0 | 17.5 | 13.9 | 20000 | 14.3 | 6.9 | 24.6 | 
3 | CCC1(CC)C(=O)N(C(=O)NCCC(=O)NCCN(CCNC(C)(C)C(C)=NO)CCNC(C)(C)C(C)=NO)C1Oc1ccc(C(=O)N2CCN(C)CC2)cc1 (racemic) [Compound 51, Conjugate Between Chelate, 3,3,11,11-Tetramethyl-7-aminomethyl-4,7,10-triazatridecane-2,12-dionedioxime and 4-[4-[[(4-Methyl)piperazin-1-yl]carbonyl]phenoxy]-1-[(2-carboxy)ethylaminocarbonyl]-3,3-diethyl-2-azetidinone] | some degree of selectivity for granulocytes | 3.9 | 0.4 | 11.2 | 1.9 | 13.4 | 2500 | 0.8 | 1.7 | 28.7 | 
4 | CCC1(CC)C(=O)N(C(=O)NCc2ccccc2)C1Oc1ccc(C(=O)NCCN(CCNC(C)(C)C(C)=NO)CCNC(C)(C)C(C)=NO)cc1 (racemic) [Compound 52, Conjugate Between Chelate, 3,3,11,11-tetramethyl-7-aminomethyl-4,7,10-triazatridecane-2,12-dionedioxime and 4-[(4-carboxy)phenoxy]-1-[benzylaminocarbonyl]-3,3-diethyl-2-azetidinone] | some degree of selectivity for granulocytes | 1.9 | 0.8 | 7.1 | 1.8 | 8.2 | 7800 | 37.4 | 9.1 | 10.9 | 
5 | CCC[C@@H](NC(=O)N1C(=O)C(CC)(CC)[C@@H]1Oc1cccnc1)c1ccc(I)cc1 [Compound 28, 4S-(Pyridyl-3-oxy)-1-[(R-α-n-propyl)-(4-iodo)benzylaminocarbonyl]-3,3-diethyl-2-azetidinone] | some degree of selectivity for granulocytes | 67.4 | 14.8 | 17.5 | 41.9 | 14.9 | 650000 |  |  |  | Infected/blood ([5]; 4 hrs post injection): 0.9; Infected/normal ([5]; 4 hrs post injection): 1.5; Relative conc. In infected area ([5]; 4 hrs post injection): 0.45; Infected/blood ([5]; 24 hrs post injection): 0.9; Infected/normal ([5]; 24 hrs post injection): 1.2; Relative conc. In infected area ([5]; 24 hrs post injection): 0.16; Relative conc. In infected area ([6]; 4 hrs post injection): 0.22; Infected/normal ([6]; 4 hrs post injection): 1.3; Infected/blood ([6]; 4 hrs post injection): 1.1; Relative conc. In infected area ([6]; 24 hrs post injection): 0.12; Infected/normal ([6]; 24 hrs post injection): 1.2; Infected/blood ([6]; 24 hrs post injection): 1.2; kinact/Ki (human elastase) ([3]; as listed in Table 24 beside the radiolabelled compounds): 650000
6 | [123IH] [[^123I]-iodide, reference compound] |  |  |  |  |  |  |  |  |  |  | % dose in Thyroid ([7]; 4 hours): 6.8 % dose; % dose in Thyroid ([7]; 24 hours): 22.2 % dose
